What was measured:
[1] = biological target: T1, human E3 ligase component cereblon (CRBN) (Homo sapiens, UniProt Q96SW2); assay: Cereblon (CRBN) target engagement, NanoBRET TE Intracellular E3 Ligase Assay in transfected HEK-293T cells; details: read-out: CRBN Binding EC50
T1 construct: host or cells: HEK293T
Method: HEK293T cells were harvested ca. 75% confluent with trypsin and plated (500,000 cells/well) in a 6-well tissue culture plate in 2 mL of Dulbecco's Modified Eagle Medium (DMEM)^+10% Fetal Bovine Serum (FBS) and incubated overnight at 37° C.
The NanoLuc-CRBN fusion vector (Nluc-CRBN; Promega) contains the coding region of human E3 ligase component cereblon (CRBN) fused to the C-terminus of the NanoLuc luciferase coding region. A mixture of 10 ng Nluc-CRBN and 990 ng DDB1 Expression Vector (Promega) was added to 125 μL Opti-Minimum Essential Medium (Opti-MEM™; Thermo Fisher) along with […] P3000 reagent (Thermo Fisher) in a 1.5 mL epppendorf tube. This solution was added to Lipofectamine 3000 transfection reagent (5 μL; Thermo Fisher) in Opti-MEM (125 μL), mixed well, and incubated for 15 minutes at room temperature. The transfection mixture was added dropwise to cells and incubated overnight at 37° C., 5% CO2. Following transfection, cells were washed once with PBS, and trypsin (250 μL) was added and incubated 30-45 see to dislodge cells. Complete media (2 mL) was added to resuspend cells to form a single cell suspension. Cells were centrifuged at 320×g for 5 min at room temperature, the supernatant was removed, and the cell pellet resuspended in Opti-MEM (3 mL; wash step repeated ×2). After final resuspension in 5 mL Opti-MEM, cells were counted and resuspended at 200,000 cells/mL in Opti-MEM.
Cereblon target engagement was monitored by Bioluminescence Resonance Energy Transfer (BRET) in transfected HEK-293T cells using the NanoBRET TE Intracellular E3 Ligase Assay (Promega). Briefly, 384-well plates (white opaque plates, Corning 3574, low binding surface) were seeded with transfected HEK-293T cells (38 μL/well). 2 μL of 10 μM CRBN tracer (diluted 1:5 in Tracer Dilution Buffer) was added to each well. Plates were centrifuged at 320×g for 1 min at room temperature. Test compounds were added in a 11-point dilution series (typically 10 μM to 100 pM) using a TECAN D300e Digital Dispenser. Plates were shaken for 2 minutes on a microplate shaker to mix compounds. Plates were centrifuged at 320×g for 1 min at room temperature, and subsequently incubated for 2 hours at 37° C.
After incubation, plates were allowed to cool to room temperature for 15 minutes. 20 μL of 3× Complete NanoBRET™ Nano-Glo® Substrate plus Inhibitor Solution (Promega, 1:166 Substrate and 1:500 dilution of Extracellular NanoLuc® Inhibitor diluted in Opti-MEM) were added to each well. Plates were incubated with shaking at room temperature for 3 minutes covered with foil. Plates were read on a CLARIOstar microplate reader (BMG LabTech), measuring at 450 nm (donor emission) and 610 nm (acceptor emission). The IC50 values were determined by regression to best fit four-parameter logistic curves using GraphPad Prism.

IKZF2 (Helios) = biological target: T2, IKZF2 (Helios) (Homo sapiens, UniProt Q9UKS7); assay: IKZF2 reporter degradation assay (HEK 293T IKZF2-mNeonGreen reporter cell line); format: cell-based; details: HEK 293T IKZF2-mNeonGreen reporter, 24 hours incubation
T2 construct: Leu-Asp junction (codons ctcgac before the linker); mScarlet (behind P2A) (C, cleaved yes); expressed in transfected cells
Excerpt: Polycistronic plasmids were constructed for the mammalian expression of fluorescent reporter fusions of human transcription factors IKZF1 (Ikaros), IKZF2 (Helios), and IKZF3 (Aiolos). The respective protein sequences had their C-terminal end joined to a GGGGS linker repeated three times followed by mNeonGreen, P2A sequence, and mScarlet. The DNA sequences of the open reading frames are as follows:
IKZF1, IKZF2, and IKZF3 constructs were cloned into the UCOE Hygromycin expression vectors (Millipore Sigma). Reporter constructs were transfected using cationic lipid reagents into adherent HEK 293T cells and stable integrants were selected by treatment with 200 μg/mL hygromycin B. Clonal populations were obtained from the population of stable integrants either by limiting dilution or fluorescence activated cell sorting.
The clonal stable cell lines were maintained under constant 200 μg/mL hygromycin B selection while being passaged for use in the degradation assays. […] The fluorescence intensity of the IKZF1/2/3-mNeonGreen (FITC channel) and mScarlet (PE channel) reporters were routinely analyzed by flow cytometry to confirm consistent expression levels between experiments.
The IKZF1/IKZF2/IKZF3 degradation assays were carried out by harvesting the HEK 293T reporter cell lines and resuspending the cells in media formulated for reduced background fluorescence (FluoroBrite; Thermo Fisher). The respective cell lines were seeded at a density of 4000 cells/well into black-walled 384-well optical grade assay tissue culture plates. The cells were incubated overnight at 37° C. to allow for attachment to the assay plate. Dilutions of the compounds were prepared in DMSO from 10 mM compound stocks. The assay plates were treated with appropriate concentrations of the compounds by dispensing the DMSO dilutions in quadruplicate wells with an upper limit of 0.5% final DMSO.
After 24 hours incubation with the compounds, the assay plates were imaged on an ImageXpress Pico microscopy system (cells maintained at 37° C. during imaging) to obtain the fluorescent readouts. The assay plates were imaged in the FITC and Tetramethylrhodamine (TRITC) channels to obtain the mNeonGreen fluorescence intensity (reporter degradation data) and mScarlet fluorescence intensity (for cell segmentation). 293T-IKZF1 and 293T-IKZF3 reporter cell lines were imaged with exposures of 500 milliseconds (ms) for both FITC and TRITC channels, while the 293T-IKZF2 reporter cell line was imaged with exposures of 1000 ms for FITC and 1250 ms for TRITC. The resulting data was analyzed with Cell Reporter Xpress software using the 2-channel cell scoring analysis with a “percent positive” readout. The TRITC channel was selected for the “nuclei” segmentation with a threshold of 20 while the FITC channel was selected for the “Marker 1” segmentation and a threshold of 100 for the IKZF1 and IKZF3 reporter lines. […] The minimum segmentation width was set to 6 micrometers and the maximum segmentation width was set to 15 micrometers for all cell lines. The DC50 calculations were determined by regression to best fit four-parameter logistic curves using GraphPad Prism.

T1 sequence (Q96SW2 whole entry): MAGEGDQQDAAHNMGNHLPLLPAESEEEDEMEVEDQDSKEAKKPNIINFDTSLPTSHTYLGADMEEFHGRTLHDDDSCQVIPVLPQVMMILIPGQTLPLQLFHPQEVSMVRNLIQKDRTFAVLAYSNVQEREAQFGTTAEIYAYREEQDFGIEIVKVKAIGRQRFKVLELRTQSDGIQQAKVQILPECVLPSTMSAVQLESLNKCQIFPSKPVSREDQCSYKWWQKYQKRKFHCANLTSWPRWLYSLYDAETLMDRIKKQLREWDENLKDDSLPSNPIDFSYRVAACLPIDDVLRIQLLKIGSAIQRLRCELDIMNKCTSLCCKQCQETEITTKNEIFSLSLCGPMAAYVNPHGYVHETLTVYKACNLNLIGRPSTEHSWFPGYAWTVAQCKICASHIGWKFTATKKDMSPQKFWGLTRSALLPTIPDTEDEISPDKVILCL
T1 sequence (Q16531 whole entry partner): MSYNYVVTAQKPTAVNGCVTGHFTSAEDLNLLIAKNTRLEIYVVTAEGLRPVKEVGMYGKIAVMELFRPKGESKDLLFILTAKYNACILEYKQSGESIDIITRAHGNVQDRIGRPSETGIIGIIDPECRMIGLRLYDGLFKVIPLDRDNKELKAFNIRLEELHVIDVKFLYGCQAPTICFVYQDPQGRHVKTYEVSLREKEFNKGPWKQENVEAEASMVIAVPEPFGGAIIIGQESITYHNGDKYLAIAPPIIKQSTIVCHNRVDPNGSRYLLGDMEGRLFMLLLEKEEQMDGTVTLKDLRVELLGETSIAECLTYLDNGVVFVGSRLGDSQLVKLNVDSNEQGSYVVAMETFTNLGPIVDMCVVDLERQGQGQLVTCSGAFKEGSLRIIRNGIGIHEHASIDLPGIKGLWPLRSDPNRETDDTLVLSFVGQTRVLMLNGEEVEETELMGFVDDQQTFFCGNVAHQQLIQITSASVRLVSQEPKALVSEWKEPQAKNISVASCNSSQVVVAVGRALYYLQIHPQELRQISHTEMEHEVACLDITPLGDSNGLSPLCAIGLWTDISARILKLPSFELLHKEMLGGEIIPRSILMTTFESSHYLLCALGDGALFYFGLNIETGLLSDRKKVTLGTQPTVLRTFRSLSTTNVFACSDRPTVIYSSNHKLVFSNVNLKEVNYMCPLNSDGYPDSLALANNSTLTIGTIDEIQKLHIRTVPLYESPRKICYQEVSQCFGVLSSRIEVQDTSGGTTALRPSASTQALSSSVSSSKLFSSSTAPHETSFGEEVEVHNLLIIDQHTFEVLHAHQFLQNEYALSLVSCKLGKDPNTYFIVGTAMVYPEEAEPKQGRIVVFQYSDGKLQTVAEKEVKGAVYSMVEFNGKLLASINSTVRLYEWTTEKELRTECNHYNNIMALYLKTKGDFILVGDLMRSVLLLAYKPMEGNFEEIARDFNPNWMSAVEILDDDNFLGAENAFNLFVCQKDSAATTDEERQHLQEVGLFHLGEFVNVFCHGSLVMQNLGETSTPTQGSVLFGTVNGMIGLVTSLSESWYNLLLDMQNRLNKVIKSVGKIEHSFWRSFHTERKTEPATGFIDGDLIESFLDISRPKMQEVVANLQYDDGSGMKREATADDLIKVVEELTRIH
T2 sequence (Q9UKS7 whole entry): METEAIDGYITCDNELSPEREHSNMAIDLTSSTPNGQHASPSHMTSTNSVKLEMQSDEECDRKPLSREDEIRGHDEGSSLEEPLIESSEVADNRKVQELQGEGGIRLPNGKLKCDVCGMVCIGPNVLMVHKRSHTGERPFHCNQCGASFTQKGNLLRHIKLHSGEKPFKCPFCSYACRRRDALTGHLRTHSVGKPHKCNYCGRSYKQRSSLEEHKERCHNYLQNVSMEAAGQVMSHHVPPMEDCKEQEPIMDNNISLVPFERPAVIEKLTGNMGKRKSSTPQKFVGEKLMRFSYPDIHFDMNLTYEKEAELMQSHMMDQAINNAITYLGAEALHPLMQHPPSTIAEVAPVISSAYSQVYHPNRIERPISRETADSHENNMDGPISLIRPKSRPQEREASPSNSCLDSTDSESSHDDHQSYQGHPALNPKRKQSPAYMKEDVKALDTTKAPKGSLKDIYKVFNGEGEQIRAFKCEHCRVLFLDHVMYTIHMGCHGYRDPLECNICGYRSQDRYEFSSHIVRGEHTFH
T2 sequence (Q96SW2 whole entry, further chain): as the sequence (Q96SW2 whole entry) above
T2 sequence (Q16531 whole entry partner): as the sequence (Q16531 whole entry partner) above

Row | SMILES | EC50 [1] [nM] | DC50 (IKZF2 (Helios)) [µM]
1 | O=C1CCC(N2Cc3cc(O[C@H]4CCCC[C@H]4N4CC(c5cncc(Cl)c5)C4)ccc3C2=O)C(=O)N1 (single isomer, unassigned) [Compound 114-B] | 20 | > 30
2 | O=C1CCC(N2Cc3cc(O[C@@H]4CCCC[C@H]4N4CC(c5ncc(C6CC6)cn5)C4)ccc3C2=O)C(=O)N1 (single isomer, unassigned) [Compound 133-B] | 10 | > 30
3 | O=C1CCC(N2Cc3cc(O[C@@H]4CCCC[C@@H]4N4CC(c5ncc(C(F)(F)F)cn5)C4)ccc3C2=O)C(=O)N1 (single isomer, unassigned) [Compound 119-B] | 24 | > 30
4 | Cc1cnc(C2CN([C@H]3CCCC3Oc3ccc4c(c3)CN(C35CC(C3)C(=O)NC5=O)C4=O)C2)o1 (mixture of isomers) [Compound 145-B, Rac-1-(5-(((trans)-2-(3-(5-methyloxazol-2-yl)azetidin-1-yl)cyclopentyl)oxy)-1-oxoisoindolin-2-y1)-3-azabicyclo[3.1.1]heptane-2,4-dione] | > 10000 | –
5 | O=C1NC(=O)C2(N3Cc4cc(O[C@@H]5CCCC[C@@H]5N5CC(c6ccncc6)C5)ccc4C3=O)CC1C2 (racemic) [Compound 159-B, Rac-1-(1-oxo-5-(((cis)-2-(3-(pyridin-4-yl)azetidin-1-yl)cyclohexyl)oxy)isoindolin-2-yl)-3-azabicyclo[3.1.1]heptane-2,4-dione] | > 10000 | –
6 | O=C1CCC(N2Cc3cc(O[C@@H]4CCCC[C@H]4N4CC(c5ncc(Br)cn5)C4)ccc3C2=O)C(=O)N1 (single isomer, unassigned) [Compound 106-B] | 6 | > 30
7 | O=C1CCC(N2Cc3cc(O[C@@H]4CCCC[C@@H]4N4CC(c5ccncc5F)C4)ccc3C2=O)C(=O)N1 (single isomer, unassigned) [Compound 104-B] | 38 | > 30
8 | O=C1NC(=O)C2(N3Cc4cc(O[C@H]5CCCC[C@@H]5N5CC(c6ccncc6)C5)ccc4C3=O)CC1C2 (racemic) [Compound 160-B, Rac-1-(1-oxo-5-(((trans)-2-(3-(pyridin-4-yl)azetidin-1-yl)cyclohexyl)oxy)isoindolin-2-yl)-3-azabicyclo[3.1.1]heptane-2,4-dione] | > 10000 | –
9 | O=C1CCC(N2Cc3cc(O[C@@H]4CCCC[C@@H]4N4CC(c5ncc(C(F)(F)F)cn5)C4)ccc3C2=O)C(=O)N1 (single isomer, unassigned) [Compound 118-B] | 4 | > 30
10 | O=C1CCC(N2Cc3cc(O[C@H]4CCCC[C@H]4N4CC(c5ncc(C(F)(F)F)cn5)C4)ccc3C2=O)C(=O)N1 (single isomer, unassigned) [Compound 121-B] | 5 | > 30
11 | O=C1CCC(N2Cc3cc(O[C@H]4CCCC[C@H]4N4CC(c5ncc(C(F)(F)F)cn5)C4)ccc3C2=O)C(=O)N1 (single isomer, unassigned) [Compound 122-B] | 13 | > 30
12 | Cc1cnc(C2CN([C@H]3CCCC3Oc3ccc4c(c3)CN(C35CC(C3)C(=O)NC5=O)C4=O)C2)o1 (mixture of isomers) [Compound 144-B, Rac-1-(5-(((cis)-2-(3-(5-methyloxazol-2-yl)azetidin-1-yl)cyclopentyl)oxy)-1-oxoisoindolin-2-yl)-3-azabicyclo[3.1.1]heptane-2,4-dione] | > 10000 | –
13 | O=C1CCC(N2Cc3cc(O[C@@H]4CCCC[C@@H]4N4CC(c5ccc(Cl)cn5)C4)ccc3C2=O)C(=O)N1 (single isomer, unassigned) [Compound 101-B] | 11 | > 30
14 | O=C1NC(=O)C2(N3Cc4cc(OC5CCC[C@@H]5N5CC(c6ncc(Cl)cn6)C5)ccc4C3=O)CC1C2 (mixture of isomers) [Compound 157-B, Rac-1-(5-(((trans)-2-(3-(5-chloropyrimidin-2-yl)azetidin-1-yl)cyclopentyl)oxy)-1-oxoisoindolin-2-yl)-3-azabicyclo[3.1.1]heptane-2,4-dione] | > 10000 | –
15 | O=C1CCC(N2Cc3cc(O[C@@H]4CCCC[C@@H]4N4CC(c5ccncc5Cl)C4)ccc3C2=O)C(=O)N1 (single isomer, unassigned) [Compound 96-B] | 30 | > 30
16 | O=C1CCC(N2Cc3cc(O[C@@H]4CCCC[C@@H]4N4CC(c5ncncc5Cl)C4)ccc3C2=O)C(=O)N1 (single isomer, unassigned) [Compound 94-B] | 29 | > 30
17 | O=C1CCC(N2Cc3cc(O[C@H]4CCCC[C@@H]4N4CC(c5ncc(Br)cn5)C4)ccc3C2=O)C(=O)N1 (single isomer, unassigned) [Compound 107-B] | 22 | > 30
18 | O=C1NC(=O)C2(N3Cc4cc(OC5CCC[C@@H]5N5CC(c6ncc(Cl)cn6)C5)ccc4C3=O)CC1C2 (mixture of isomers) [Compound 156-B, Rac-1-(5-(((cis)-2-(3-(5-chloropyrimidin-2-yl)azetidin-1-yl)cyclopentyl)oxy)-1-oxoisoindolin-2-yl)-3-azabicyclo[3.1.1]heptane-2,4-dione] | > 10000 | –
19 | Cc1cnc(C2CN([C@H]3CCCC[C@@H]3Oc3ccc4c(c3)CN(C35CC(C3)C(=O)NC5=O)C4=O)C2)o1 (racemic) [Compound 150-B, Rac-1-(5-(((trans)-2-(3-(5-methyloxazol-2-yl)azetidin-1-yl)cyclohexyl)oxy)-1-oxoisoindolin-2-yl)-3-azabicyclo[3.1.1]heptane-2,4-dione] | > 10000 | –
20 | Cc1cnc(C2CN([C@H]3CCCC[C@H]3Oc3ccc4c(c3)CN(C35CC(C3)C(=O)NC5=O)C4=O)C2)o1 (racemic) [Compound 149-B, Rac-1-(5-(((cis)-2-(3-(5-methyloxazol-2-yl)azetidin-1-yl)cyclohexyl)oxy)-1-oxoisoindolin-2-yl)-3-azabicyclo[3.1.1]heptane-2,4-dione] | > 10000 | –
21 | O=C1CCC(N2Cc3cc(OC4CCCC4N4CC(c5ncc(F)cn5)C4)ccc3C2=O)C(=O)N1 (stereo not drawn) [Compound 158-B, 3-(5-((2-(3-(5-fluoropyrimidin-2-yl)azetidin-1-yl)cyclopentyl)oxy)-1-oxoisoindolin-2-yl)piperidine-2,6-dione] | 88 | –

From patent publication US20250100996A1, “HETEROCYCLOALKYL AND HETEROARYL COMPOUNDS AND PHARMACEUTICAL COMPOSITIONS THAT MODULATE IKZF2” (Plexium, Inc., priority 2021, published 2025)
